# In US9758492B2, “IDO inhibitors” (Bristol-Myers Squibb Company, priority 2013, dated 2017):
# Molecular target: T1, Human IDO1 (Homo sapiens, UniProt P14902)
# T1 construct: expressed in transfected cells; host or cells: HEK293
# Assay: IDO Kynurenine Assay with Human IDO1/HEK293 Cells
# Assay type: cell-based
# Conditions: read-out: HEK human IDO-1 (IC50)
# Procedure: IDO Kynurenine Assay with Human IDO1/HEK293 Cells
# Human IDO1/HEK293 cells were seeded at 10,000 cells per 50 uL per well with RPMI/phenol red free media contains 10% FBS in a 384-well black wall clear bottom tissue culture plate (Matrix Technologies LLC) 125 nL of certain concentration of compound was then added to each well using ECHO liquid handling systems. The cells were incubated for 20 hours in 37° C. incubator with 5% CO2.
# The compound treatments were stopped by adding Trichloroacetic Acid (Sigma-Aldrich) to a final concentration at 0.2%. The cell plate was further incubated at 50° C. for 30 minute. The equal volume supernatant (20 uL) and 0.2% (w/v) Ehrlich reagent (4-dimethylaminobenzaldehyde, Sigma-Aldrich) in glacial acetic acid were mixed in a new clear bottom 384-well plate. This plate was then incubated at room temperature for 30 minute. The absorbance at 490 nm was measured on Envision plate reader.
# Compound IC50 values were calculated using the counts of 500 nM of a reference standard treatment as one hundred percent inhibition, and counts of no compound but DMSO treatment as zero percent inhibition.
# T1 sequence (P14902 whole entry): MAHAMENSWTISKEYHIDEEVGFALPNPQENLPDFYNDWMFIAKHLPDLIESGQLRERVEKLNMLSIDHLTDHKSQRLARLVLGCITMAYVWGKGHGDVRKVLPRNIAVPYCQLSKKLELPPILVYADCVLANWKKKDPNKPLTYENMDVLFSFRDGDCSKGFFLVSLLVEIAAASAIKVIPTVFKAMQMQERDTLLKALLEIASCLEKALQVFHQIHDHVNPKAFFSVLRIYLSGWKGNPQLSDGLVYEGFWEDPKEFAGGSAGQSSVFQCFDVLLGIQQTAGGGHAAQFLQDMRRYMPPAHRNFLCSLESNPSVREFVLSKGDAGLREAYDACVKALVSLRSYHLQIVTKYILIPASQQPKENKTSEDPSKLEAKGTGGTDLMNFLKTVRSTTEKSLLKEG
row,SMILES,IC50
1,COc1ccc(-c2ccc(N(CC(C)C)CC(C)C)c(NC(=O)Nc3ccc(C)cc3)c2)c(C(=O)O)c1 [Example 497],230 nM
2,Cc1ccc(NC(=O)Nc2cc(-c3ccccc3-c3nnn[nH]3)ccc2N(C2CC2)C2CC2)cc1 [Example 542],760 nM
3,Cc1ccc(NC(=O)Nc2cc(-c3ccccc3-c3nnn[nH]3)ccc2N(CCOC(C)C)CC(C)C)cc1 [Example 465],200 nM
4,Cc1ccc(NC(=O)Nc2cc(-c3ccccc3-c3nnn[nH]3)ccc2N(CC(C)C)CC(C)C)cn1 [Example 395],70 nM
5,"Cc1ccc(NC(=O)Nc2cc(-c3cccc(C)c3C(=O)O)ccc2N(CC(C)C)CC(C)C)cc1 [Example 536, 4′-(Diisobutylamino)-3-methyl-3′-(3-(p-tolyl)ureido)-[1,1′-biphenyl]-2-carboxylic acid]",70 nM
6,CC(C)CN(c1ccc(-c2cc(F)ccc2C(=O)O)cc1NC(=O)Nc1cc(C(F)(F)F)no1)C1CCCCC1 [Example 400],5.35 nM
7,Cc1ccc(NC(=O)Nc2cc(-c3cc(F)ccc3C(=O)O)ccc2N(CCCC(F)(F)F)C2CCCCC2)cc1 [Example 415],130 nM
8,C=C(C)CN(c1ccc(-c2ccccc2-c2nnn[nH]2)cc1NC(=O)Nc1ccc(C)cc1)C1CCCCC1 [Example 462],1.11 nM
9,COc1ccc(-c2ccc(N(CC(C)C)CC(C)C)c(NC(=O)Nc3ccc(Cl)cc3F)c2)c(C(=O)O)c1 [Example 494],30 nM
10,CC(C)CN(CC(C)C)c1ccc(-c2ccccc2-c2nnn[nH]2)cc1NC(=O)Nc1ccc(C#N)nc1 [Example 489],220 nM
11,COC[C@H](C)N(CCCC(F)(F)F)c1ccc(-c2ccccc2-c2nnn[nH]2)cc1NC(=O)Nc1ccc(C)cc1 [Example 423],20 nM
12,COc1cccc(-c2ccc(N(CC(C)C)CC(C)C)c(NC(=O)Nc3ccc(Cl)cc3F)c2)c1C(=O)O [Example 500],20 nM
13,"Cc1ccc(C(=O)O)c(-c2ccc(N(CC(C)C)CC(C)C)c(NC(=O)Nc3ccc(Cl)cc3F)c2)c1 [Example 527, 3′-(3-(4-Chloro-2-fluorophenyl)ureido)-4′-(diisobutylamino)-5-methyl-[1,1′-biphenyl]-2-carboxylic acid]",40 nM
14,COCCN(c1ccc(-c2ccccc2C(=O)O)cc1NC(=O)Nc1ccc(C)cc1)C1CCCCC1 [Example 445],50 nM
15,Cc1cc(NC(=O)Nc2cc(-c3ccccc3C(=O)O)ccc2N(CC(C)C)C2CCCCC2)on1 [Example 377],1.68 nM
16,CCc1ccc(NC(=O)Nc2cc(-c3ccccc3-c3nnn[nH]3)ccc2N(CC(C)C)CC(C)C)cc1 [Example 459],7.09 nM
17,"Cc1ccc(NC(=O)Nc2cc(-c3ccccc3-c3nnn[nH]3)c(F)cc2N(CC(C)C)C2CCC(F)(F)CC2)cc1 [Example 534, 1-(4-((4,4-Difluorocyclohexyl)(isobutyl)amino)-6-fluoro-2′-(1H-tetrazol-5-yl)-[1,1′-biphenyl]-3-yl)-3-(p-tolyl)urea]",3.05 nM
18,CCC(CC)N(CC(C)C)c1ccc(-c2ccccc2C(=O)O)cc1NC(=O)Nc1ccc(C)cc1 [Example 443],10 nM
19,CCC(CC)N(CC(C)C)c1ccc(-c2ccccc2C(=O)O)cc1NC(=O)Nc1ccccc1F [Example 448],1.56 nM
20,CC(C)CN(CC(C)C)c1ccc(-c2ccccc2-c2nnn[nH]2)cc1NC(=O)Nc1ccc(C(C)C)cc1 [Example 455],510 nM
21,"Cc1cccc(-c2ccc(N(CC(C)C)CC(C)C)c(NC(=O)Nc3ccc(OC(F)(F)F)cc3)c2)c1C(=O)O [Example 309, 4′-(Diisobutylamino)-3-methyl-3′-(3-(4-(trifluoromethoxy)phenyl)ureido)-[1,1′-biphenyl]-2-carboxylic acid]",4 nM
22,[2H]C([2H])(C(C)C)N(c1ccc(-c2cc(F)ccc2C(=O)O)cc1NC(=O)Nc1ccc(C)cc1)C([2H])([2H])C(C)C [Example 477],7.65 nM
23,"Cc1cc(NC(=O)Nc2cc(-c3ccccc3-c3nnn[nH]3)ccc2N(C2CC2)C2CC2)no1 [Example 509, 1-(4-(Dicyclopropylamino)-2′-(1H-tetrazol-5-yl)-[1,1′-biphenyl]-3-yl)-3-(5-methylisoxazol-3-yl)urea]",6630 nM
24,CCC(CC)N(CC(C)C)c1ccc(-c2ccccc2-c2nnn[nH]2)cc1NC(=O)Nc1ccc(Cl)cc1F [Example 441],1.14 nM
25,COC(C)(C)CCN(c1ccc(-c2ccccc2C(=O)O)cc1NC(=O)Nc1ccc(C)cc1)C1CCCCC1 [Example 420],5250 nM
26,CC(C)CN(c1ccc(-c2cc(F)ccc2C(=O)O)cc1NC(=O)Nc1cncnc1)C1CCCCC1 [Example 397],10 nM
27,"CC(C)CN(CC(C)C)c1ccc(-c2ccc(Cl)cc2C(=O)O)cc1NC(=O)Nc1ccc(Cl)cc1F [Example 360, 4-Chloro-3′-(3-(4-chloro-2-fluorophenyl)ureido)-4′-(diisobutylamino)-[1,1′-biphenyl]-2-carboxylic acid]",20 nM
28,CCOc1ccc(NC(=O)Nc2cc(-c3cccc(C)c3C(=O)O)ccc2N(CC(C)C)CC(C)C)cc1 [Example 545],60 nM

# Next, values leading:
row,IC50,SMILES
1,1220 nM,"Cc1ccc(NC(=O)Nc2cc(-c3cc(F)ccc3C(=O)O)c(F)cc2N(CC(C)C)C2CCCCC2)nn1 [Example 522, 4′-(Cyclohexyl(isobutyl)amino)-2′,5-difluoro-5′-(3-(6-methylpyridazin-3-yl)ureido)-[1,1′-biphenyl]-2-carboxylic acid]"
2,60 nM,CCOc1ccc(NC(=O)Nc2cc(-c3cc(F)ccc3C(=O)O)c(F)cc2N(CC(C)C)C2C[C@H]3CC[C@@H]2C3)cc1 (stereo partly shown) [Example 412]
3,70 nM,"CC(C)CN(c1cc(F)c(-c2cc(F)ccc2C(=O)O)cc1NC(=O)Nc1ccc(C(F)(F)F)nc1)C1CCCCC1 [Example 517, 4′-(Cyclohexyl(isobutyl)amino)-2′,5-difluoro-5′-(3-(6-(trifluoromethyl)pyridin-3-yl)ureido)-[1,1′-biphenyl]-2-carboxylic acid]"
4,5.75 nM,CC(C)CN(c1cc(F)c(-c2cc(F)ccc2C(=O)O)cc1NC(=O)Nc1ccc(OC(F)(F)F)cc1)C1CCCCC1 [Example 485]
5,5520 nM,"CC(C)CN(c1cc(F)c(-c2cc(F)ccc2C(=O)O)cc1NC(=O)Nc1ccc(C2CCCCC2)cc1)C1CCCCC1 [Example 523, 4′-(Cyclohexyl(isobutyl)amino)-5′-(3-(4-cyclohexylphenyl)ureido)-2′,5-difluoro-[1,1′-biphenyl]-2-carboxylic acid]"
6,4830 nM,CC(C)CN(c1cc(F)c(-c2cc(F)ccc2C(=O)O)cc1NC(=O)Nc1ccnnc1)C1CCCCC1 [Example 402]
7,3 nM,Cc1ccc(NC(=O)Nc2cc(-c3cc(F)ccc3C(=O)O)cc(F)c2N(CC(C)C)C2CCCCC2)cc1 [Example 435]
8,7.59 nM,CC(C)CN(c1ccc(-c2cc(F)ccc2C(=O)O)cc1NC(=O)Nc1ccc2nccnc2c1)C1CCCCC1 [Example 406]
9,2560 nM,CC(C)CN(c1cc(F)c(-c2cc(F)ccc2C(=O)O)cc1NC(=O)Nc1ccc2nccn2c1)C1CCCCC1 [Example 404]
10,3430 nM,"Cc1ccc(NC(=O)Nc2cc(-c3cc(F)ccc3C(=O)O)ccc2N(C2CC2)C2CC2)cc1 [Example 541, 4′-(Dicyclopropylamino)-5-fluoro-3′-(3-(p-tolyl)ureido)-[1,1′-biphenyl]-2-carboxylic acid]"
11,50 nM,CC(C)CN(c1cc(F)c(-c2cc(F)ccc2C(=O)O)cc1NC(=O)Nc1ccc(C#N)cc1)C1C[C@H]2CC[C@@H]1C2 (stereo partly shown) [Example 411]
12,7.9 nM,Cc1ccc(NC(=O)Nc2cc(-c3cc(F)ccc3C(=O)O)c(F)cc2N(CC(C)C)C2CCCCC2)cn1 [Example 394]
13,3.3 nM,"CCOc1ccc(NC(=O)Nc2cc(-c3ccccc3-c3nnn[nH]3)c(F)cc2N(CC(C)C)C2CCC(F)(F)CC2)cc1 [Example 539, 1-(4-((4,4-Difluorocyclohexyl)(isobutyl)amino)-6-fluoro-2′-(1H-tetrazol-5-yl)-[1,1′-biphenyl]-3-yl)-3-(4-ethoxyphenyl)urea]"
14,2720 nM,"CC(C)CN(c1cc(F)c(-c2cc(F)ccc2C(=O)O)cc1NC(=O)Nc1ccc(N2CCOCC2)cc1)C1CCCCC1 [Example 524, 4′-(Cyclohexyl(isobutyl)amino)-2′,5-difluoro-5′-(3-(4-morpholinophenyl)ureido)-[1,1′-biphenyl]-2-carboxylic acid]"
15,90 nM,"Cc1cnc(NC(=O)Nc2cc(-c3cc(F)ccc3C(=O)O)c(F)cc2N(CC(C)C)C2CCCCC2)cn1 [Example 525, 4′-(Cyclohexyl(isobutyl)amino)-2′,5-difluoro-5′-(3-(5-methylpyrazin-2-yl)ureido)-[1,1′-biphenyl]-2-carboxylic acid]"
16,10 nM,CC(C)CN(c1cc(F)c(-c2cc(F)ccc2C(=O)O)cc1NC(=O)Nc1ccc(C(F)(F)F)cc1F)C1CCCCC1 [Example 392]
17,2870 nM,"Cc1c(Br)cc(NC(=O)Nc2cc(-c3cc(F)ccc3C(=O)O)ccc2N(CC(C)C)C2CCCCC2)cc1Br [Example 507, 4′-(Cyclohexyl(isobutyl)amino)-3′-(3-(3,5-dibromo-4-methylphenyl)ureido)-5-fluoro-[1,1′-biphenyl]-2-carboxylic acid]"
18,6.91 nM,"Cc1ccc(NC(=O)Nc2cc(-c3cc(F)ccc3C(=O)O)c(F)cc2N(CC(C)C)C2CCC(F)(F)CC2)cc1 [Example 519, 4′-((4,4-Difluorocyclohexyl)(isobutyl)amino)-2′,5-difluoro-5′-(3-(p-tolyl)ureido)-[1,1′-biphenyl]-2-carboxylic acid]"
